“And” between values parts separate entries of the source, which are not always exact repeats. Equal values may be shown once.
Legend:
Type in all cases: binding
ciprofloxacin antibody [1] = assay: Competitive ELISA for ciprofloxacin, pre-reaction mode vs direct addition (Embodiment 1)
Method: Coat the ELISA plate with ciprofloxacin BSA conjugate, 1 μg/mL, 100 μL per well, blocking overnight at 4° C. Then block with 3% skimmed milk powder the following day. Prepare ciprofloxacin standards, 0 ppb, 1 ppb, 3 ppb, 9 ppb, 27 ppb, 81 ppb with the wash buffer (PBST).
The experiment is divided into two groups.
Group 1: pre-incubate 60 μL standards and 60 μL diluted ciprofloxacin antibody for 20 minutes at 37° C.; then take 100 μL reaction product and add to the ELISA plate covering with ciprofloxacin conjugate, react for 30 minutes at 37° C.; wash the plate, add HRP labeled secondary antibody, react for 30 minutes at 37° C., wash the plate; add chromogenic agent 100 μL, react for 15 minutes at 37° C.; and finally add 50 μL termination solution, then measure the OD450 with a microplate reader.
Group 2: add into the ELISA plate covering with ciprofloxacin conjugate with 50 μL standard and 50 μL antibody, in the sequence; react for 30 minutes at 37° C., wash the plate; add HRP labeled secondary antibody, react for 30 minutes at 37° C., wash the plate; add chromogenic agent 100 μL, react for 15 minutes at 37° C.; and finally add 50 μL termination solution, then measure OD450 with a microplate reader.

ciprofloxacin antibody [2] = assay: Competitive ELISA for ciprofloxacin, different re-reaction times (Embodiment 2)
Method: (§1) Coat the ELISA plate with ciprofloxacin BSA conjugate, 1 μg/mL, 100 μL per well, blocking overnight at 4° C. Then block with 3% skimmed milk powder the following day. Prepare ciprofloxacin standards, 0 ppb, 1 ppb, 5 ppb, and 10 ppb with wash buffer.
The experiment is divided into 5 groups, each group takes 100 μL standard and 100 μL ciprofloxacin antibody, pre-react for 20 minutes at 37° C. in the microplates, then add to ciprofloxacin ELISA plates:
Take 120 μL pre-reaction product to the ciprofloxacin ELISA plates from group 1, group 2, group 3 and group 4, and resume reacting for 30 minutes, 20 minutes, 10 minutes and 5 minutes respectively; wash the plate; add HRP labeled secondary antibody, react for 30 minutes at 37° C., wash the plate; add chromogenic agent 100 μL, react for 15 minutes at 37° C.; and finally add 50 μL termination solution, then measure the OD450.
Take 20 μL pre-reaction solution of antibody and standard from group 5 and add to the ciprofloxacin ELISA plate, react for 1 minute, discard the liquid in the well, and pat dry on absorbent paper, then add 20 μL mixture solution and react for 1 minute, repeat for 6 times altogether; wash the plate; add HRP labeled secondary antibody, react for 30 minutes at 37° C., wash the plate; add chromogenic agent 100 μL, react for 15 minutes at 37° C.; and finally add 50 μL termination solution, then measure the OD450.

ciprofloxacin antibody [3] = assay: Competitive ELISA for ciprofloxacin, different pre-reaction times (Embodiment 3); conditions: re-reaction 1 min, 6 times
Method: as §1
The experiment is divided into 4 groups, each group takes 100 μL standard and 100 μL ciprofloxacin antibody, pre-incubate for 5 minutes, 10 minutes, 15 minutes and 20 minutes at 37° C. in the microplates respectively, then take 20 μL mixture solutions of antibody and standard and add to the ciprofloxacin ELISA plate, react for 1 minute, discard the liquid in the well, and pat dry on absorbent paper, then add 20 μL mixture solution and react for 1 minute, repeat for a total 6 times; wash the plate; add HRP labeled secondary antibody, react for 30 minutes at 37° C., wash the plate; add chromogenic agent 100 μL, react for 15 minutes at 37° C.; and finally add 50 μL termination solution, then measure the OD450.

Ractopamine antibody = assay: Competitive ELISA for Ractopamine (Embodiment 4)
Method: Preparing the Ractopamine microplate: Ractopamine coating antigen is added to the microplate, 100 μL/well, react for 2 hours at 37° C.; discard the liquid in the well; add blocking solution into the microplate, 100 μL/well, blocking for 1 hour at 37° C.; wash 3 times with wash buffer, leave for reservation. Prepare Ractopamine standards with concentrations of 0 ppb, 0.05 ppb, 0.15 ppb, 0.45 ppb, 1.35 ppb, 4.05 ppb respectively, with wash buffer.
Group 1: add 60 μL the standard and the Ractopamine antibody respectively into a new microplate, pre-react for 20 minutes; take 20 μL mixture solution of antibody and standard into the Ractopamine microplate, react for 1 minute, discard the liquid in the well, and pat dry on absorbent paper, then add 20 μL mixture solution and react for 1 minute, repeat for 5 times altogether, the pre-reaction product added into each well is 100 μL altogether; add HRP labeled secondary antibody, 100 μL per well, react for 45 minutes at 37° C.; wash the plate; add chromogenic agent 100 μL, react for 15 minutes at 37° C.; and finally add 50 μL termination solution, then measure the OD450.
Group 2: add 60 μL the standard and the Ractopamine antibody respectively into a new microplate, pre-react for 20 minutes; take 100 μL mixture solution of antibody and standard into the Ractopamine microplate, react for 30 minutes, discard the liquid in the well, and pat dry on absorbent paper; wash the plate; add HRP labeled secondary antibody, 100 μL per well, react for 45 minutes at 37° C., wash the plate; add chromogenic agent 100 μL, react for 15 minutes at 37° C.; and finally add 50 μL termination solution, then measure the OD450.

chloramphenicol Mcab = assay: Competitive chemiluminescence immunoassay for chloramphenicol (Embodiment 5)
Method: • 1) Preparation of the chloramphenicol microplate: add chloramphenicol-BSA conjugate into the ELISA plate, 100 μL per well, overnight at 4° C., wash 3 times with a separation time of 3 minutes each, pat dry; add 5% skimmed milk powder 130 μL per well, block for 1 hour at 37° C., pat dry; wash 3 times with wash buffer, pat dry, leave for reservation. Prepare the chloramphenicol standard solutions with wash buffer: 0 ppb, 0.01 ppb, 0.03 ppb, 0.09 ppb, 0.27 ppb, 0.81 ppb. • 2) Mix the standard and the chloramphenicol Mcab in equal volumes, incubate for 20 minutes at 37° C.; then transfer the reaction product into chloramphenicol microplate; • Group 1: transfer the reaction product into ELISA plate, 20 μL/well, reaction for 1 minute at 37° C., discard liquid in the well, repeat the operation 5 times, and the pre-reaction product added to each well is total 100 μL; • Group 2: one-time transfer the whole 100 μL reaction product into the chloramphenicol microplate, reacting for 20 minute at 37° C.; • 3) Wash 3 times; add HRP labeled secondary antibody, 100 μL per well, react for 45 minutes at 37° C.; wash 5 times; after adding luminous substrate, chemiluminescence measuring instrument is applied to measure the luminous intensity.

## O=C(O)c1cn(C2CC2)c2cc(N3CCNCC3)c(F)cc2c1=O [Ciprofloxacin]
Ciprofloxacin antibody [1]; Group 1 (20 min pre-incubation, then 30 min on plate), ciprofloxacin 1 ppb
  OD450: 1.975
Ciprofloxacin antibody [1]; Group 1 (20 min pre-incubation, then 30 min on plate), ciprofloxacin 3 ppb
  OD450: 1.632
Ciprofloxacin antibody [1]; Group 1 (20 min pre-incubation, then 30 min on plate), ciprofloxacin 9 ppb
  OD450: 1.448
Ciprofloxacin antibody [1]; Group 1 (20 min pre-incubation, then 30 min on plate), ciprofloxacin 27 ppb
  OD450: 0.924
Ciprofloxacin antibody [1]; Group 1 (20 min pre-incubation, then 30 min on plate), ciprofloxacin 81 ppb
  OD450: 0.483
Ciprofloxacin antibody [1]; Group 2 (no pre-incubation, 30 min on plate), ciprofloxacin 1 ppb
  OD450: 1.904
Ciprofloxacin antibody [1]; Group 2 (no pre-incubation, 30 min on plate), ciprofloxacin 3 ppb
  OD450: 1.643
Ciprofloxacin antibody [1]; Group 2 (no pre-incubation, 30 min on plate), ciprofloxacin 9 ppb
  OD450: 1.203
Ciprofloxacin antibody [1]; Group 2 (no pre-incubation, 30 min on plate), ciprofloxacin 27 ppb
  OD450: 0.952
Ciprofloxacin antibody [1]; Group 2 (no pre-incubation, 30 min on plate), ciprofloxacin 81 ppb
  OD450: 0.523
Ciprofloxacin antibody [2]; ciprofloxacin 1 ppb, re-reaction 1 min, 6 times
  OD450: 0.863 and 0.813
Ciprofloxacin antibody [2]; ciprofloxacin 1 ppb, re-reaction time 5 min
  OD450: 1.21 and 1.189
Ciprofloxacin antibody [2]; ciprofloxacin 1 ppb, re-reaction time 10 min
  OD450: 1.517 and 1.488
Ciprofloxacin antibody [2]; ciprofloxacin 1 ppb, re-reaction time 20 min
  OD450: 1.884 and 1.874
Ciprofloxacin antibody [2]; ciprofloxacin 1 ppb, re-reaction time 30 min
  OD450: 2.036 and 1.989
Ciprofloxacin antibody [2]; ciprofloxacin 5 ppb, re-reaction 1 min, 6 times
  OD450: 0.412 and 0.372
Ciprofloxacin antibody [2]; ciprofloxacin 5 ppb, re-reaction time 5 min
  OD450: 0.706 and 0.664
Ciprofloxacin antibody [2]; ciprofloxacin 5 ppb, re-reaction time 10 min
  OD450: 1.003 and 0.984
Ciprofloxacin antibody [2]; ciprofloxacin 5 ppb, re-reaction time 20 min
  OD450: 1.342 and 1.343
Ciprofloxacin antibody [2]; ciprofloxacin 5 ppb, re-reaction time 30 min
  OD450: 1.501 and 1.499
Ciprofloxacin antibody [2]; ciprofloxacin 10 ppb, re-reaction 1 min, 6 times
  OD450: 0.302 and 0.332
Ciprofloxacin antibody [2]; ciprofloxacin 10 ppb, re-reaction time 5 min
  OD450: 0.565 and 0.485
Ciprofloxacin antibody [2]; ciprofloxacin 10 ppb, re-reaction time 10 min
  OD450: 0.894 and 0.749
Ciprofloxacin antibody [2]; ciprofloxacin 10 ppb, re-reaction time 20 min
  OD450: 1.204 and 1.101
Ciprofloxacin antibody [2]; ciprofloxacin 10 ppb, re-reaction time 30 min
  OD450: 1.269 and 1.182
Ciprofloxacin antibody [2]; competitive reaction with solid phase antigen in a short time after pre-reaction
  IC50: 1 ppb
Ciprofloxacin antibody [2]; long re-reaction time (before improvement)
  IC50: 10 ppb
Ciprofloxacin antibody [3]; ciprofloxacin 1 ppb, pre-incubation time 5 min
  OD450: 0.337
Ciprofloxacin antibody [3]; ciprofloxacin 1 ppb, pre-incubation time 10 min
  OD450: 0.385 and 0.353
Ciprofloxacin antibody [3]; ciprofloxacin 1 ppb, pre-incubation time 15 min
  OD450: 0.399 and 0.401
Ciprofloxacin antibody [3]; ciprofloxacin 1 ppb, pre-incubation time 20 min
  OD450: 0.434 and 0.439
Ciprofloxacin antibody [3]; ciprofloxacin 5 ppb, pre-incubation time 5 min
  OD450: 0.17 and 0.169
Ciprofloxacin antibody [3]; ciprofloxacin 5 ppb, pre-incubation time 10 min
  OD450: 0.175 and 0.187
Ciprofloxacin antibody [3]; ciprofloxacin 5 ppb, pre-incubation time 15 min
  OD450: 0.193 and 0.206
Ciprofloxacin antibody [3]; ciprofloxacin 5 ppb, pre-incubation time 20 min
  OD450: 0.213 and 0.22
Ciprofloxacin antibody [3]; ciprofloxacin 10 ppb, pre-incubation time 5 min
  OD450: 0.15 and 0.133
Ciprofloxacin antibody [3]; ciprofloxacin 10 ppb, pre-incubation time 10 min
  OD450: 0.152 and 0.136
Ciprofloxacin antibody [3]; ciprofloxacin 10 ppb, pre-incubation time 15 min
  OD450: 0.153 and 0.149
Ciprofloxacin antibody [3]; ciprofloxacin 10 ppb, pre-incubation time 20 min
  OD450: 0.169 and 0.178
Ractopamine antibody; Group 1 (20 min pre-reaction; 20 μL, 1 min, 5 times), concentration 0.05 ppb
  OD: 1.175
Ractopamine antibody; Group 1 (20 min pre-reaction; 20 μL, 1 min, 5 times), concentration 0.15 ppb
  OD: 0.803
Ractopamine antibody; Group 1 (20 min pre-reaction; 20 μL, 1 min, 5 times), concentration 0.45 ppb
  OD: 0.517
Ractopamine antibody; Group 1 (20 min pre-reaction; 20 μL, 1 min, 5 times), concentration 1.35 ppb
  OD: 0.324
Ractopamine antibody; Group 1 (20 min pre-reaction; 20 μL, 1 min, 5 times), concentration 4.05 ppb
  OD: 0.183
Ractopamine antibody; Group 2 (20 min pre-reaction; 100 μL, 30 min), concentration 0.05 ppb
  OD: 1.584
Ractopamine antibody; Group 2 (20 min pre-reaction; 100 μL, 30 min), concentration 0.15 ppb
  OD: 1.391
Ractopamine antibody; Group 2 (20 min pre-reaction; 100 μL, 30 min), concentration 0.45 ppb
  OD: 1.003
Ractopamine antibody; Group 2 (20 min pre-reaction; 100 μL, 30 min), concentration 1.35 ppb
  OD: 0.602
Ractopamine antibody; Group 2 (20 min pre-reaction; 100 μL, 30 min), concentration 4.05 ppb
  OD: 0.323

## O=C(N[C@H](CO)[C@H](O)c1ccc([N+](=O)[O-])cc1)C(Cl)Cl [chloramphenicol]
Chloramphenicol Mcab; Group 1 (20 μL/well, 1 min, 5 times), chloramphenicol standard 0.01 ppb
  B/B0: 0.88 and 0.89
Chloramphenicol Mcab; Group 1 (20 μL/well, 1 min, 5 times), chloramphenicol standard 0.03 ppb
  B/B0: 0.66 and 0.64
Chloramphenicol Mcab; Group 1 (20 μL/well, 1 min, 5 times), chloramphenicol standard 0.09 ppb
  B/B0: 0.49 and 0.48
Chloramphenicol Mcab; Group 1 (20 μL/well, 1 min, 5 times), chloramphenicol standard 0.27 ppb
  B/B0: 0.21 and 0.23
Chloramphenicol Mcab; Group 1 (20 μL/well, 1 min, 5 times), chloramphenicol standard 0.81 ppb
  B/B0: 0.11 and 0.17
Chloramphenicol Mcab; Group 2 (one-time 100 μL, 20 min), chloramphenicol standard 0.01 ppb
  B/B0: 0.96 and 0.94
Chloramphenicol Mcab; Group 2 (one-time 100 μL, 20 min), chloramphenicol standard 0.03 ppb
  B/B0: 0.88 and 0.89
Chloramphenicol Mcab; Group 2 (one-time 100 μL, 20 min), chloramphenicol standard 0.09 ppb
  B/B0: 0.69
Chloramphenicol Mcab; Group 2 (one-time 100 μL, 20 min), chloramphenicol standard 0.27 ppb
  B/B0: 0.46 and 0.48
Chloramphenicol Mcab; Group 2 (one-time 100 μL, 20 min), chloramphenicol standard 0.81 ppb
  B/B0: 0.28 and 0.27
